Assay results reported in ChEMBL document CHEMBL1144945, “Development of progesterone receptor antagonists from 1,2-dihydrochromeno[3,4-f]quinoline agonist pharmacophore” (Bioorg Med Chem Lett, 2003).
Activity calls are given as the source filed them.

Assays:
[1] = biological target: T1, Progesterone receptor (Homo sapiens, UniProt P06401); assay: Effective concentration for antagonistic activity towards human progesterone in CV-1 cells; type: functional, cell-based
T1 sequence (P06401 whole entry): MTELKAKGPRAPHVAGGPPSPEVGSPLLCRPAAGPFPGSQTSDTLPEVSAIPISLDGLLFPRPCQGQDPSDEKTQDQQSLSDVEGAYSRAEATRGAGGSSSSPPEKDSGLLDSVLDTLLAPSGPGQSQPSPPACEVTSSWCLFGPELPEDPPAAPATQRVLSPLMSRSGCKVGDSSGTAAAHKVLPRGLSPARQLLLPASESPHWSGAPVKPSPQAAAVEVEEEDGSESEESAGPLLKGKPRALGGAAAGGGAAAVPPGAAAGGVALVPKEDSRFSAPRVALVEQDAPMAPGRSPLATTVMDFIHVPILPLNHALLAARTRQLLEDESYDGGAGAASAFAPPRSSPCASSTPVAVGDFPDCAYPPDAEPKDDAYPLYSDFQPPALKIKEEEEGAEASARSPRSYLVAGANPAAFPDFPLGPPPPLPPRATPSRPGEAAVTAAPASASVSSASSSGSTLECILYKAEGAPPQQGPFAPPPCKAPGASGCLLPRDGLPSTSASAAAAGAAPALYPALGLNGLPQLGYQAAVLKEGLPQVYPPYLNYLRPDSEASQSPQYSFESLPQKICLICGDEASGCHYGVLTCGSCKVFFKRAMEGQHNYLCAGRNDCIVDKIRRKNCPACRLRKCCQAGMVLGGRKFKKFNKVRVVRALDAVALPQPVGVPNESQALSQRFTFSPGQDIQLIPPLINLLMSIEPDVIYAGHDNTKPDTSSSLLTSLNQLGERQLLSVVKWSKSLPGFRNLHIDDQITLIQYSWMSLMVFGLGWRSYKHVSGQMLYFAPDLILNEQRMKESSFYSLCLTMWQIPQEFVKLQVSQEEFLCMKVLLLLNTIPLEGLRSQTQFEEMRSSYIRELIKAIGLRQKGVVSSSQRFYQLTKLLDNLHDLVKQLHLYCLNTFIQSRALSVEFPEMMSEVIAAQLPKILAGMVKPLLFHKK

[2] = biological target: T2, Progesterone receptor (Homo sapiens) (UniProt P06401); assay: Antagonist efficacy for human progesterone in CV-1 cells; type: functional, cell-based
T2 sequence (whole entry): T1 sequence (P06401 whole entry)

[3] = biological target: T1, Progesterone receptor; assay: Binding towards human progesterone receptor
[4] = biological target: T3, Glucocorticoid receptor (Homo sapiens, UniProt P04150); assay: Inhibition of antagonist activity towards glucocorticoid receptor; type: functional
T3 sequence (P04150 whole entry): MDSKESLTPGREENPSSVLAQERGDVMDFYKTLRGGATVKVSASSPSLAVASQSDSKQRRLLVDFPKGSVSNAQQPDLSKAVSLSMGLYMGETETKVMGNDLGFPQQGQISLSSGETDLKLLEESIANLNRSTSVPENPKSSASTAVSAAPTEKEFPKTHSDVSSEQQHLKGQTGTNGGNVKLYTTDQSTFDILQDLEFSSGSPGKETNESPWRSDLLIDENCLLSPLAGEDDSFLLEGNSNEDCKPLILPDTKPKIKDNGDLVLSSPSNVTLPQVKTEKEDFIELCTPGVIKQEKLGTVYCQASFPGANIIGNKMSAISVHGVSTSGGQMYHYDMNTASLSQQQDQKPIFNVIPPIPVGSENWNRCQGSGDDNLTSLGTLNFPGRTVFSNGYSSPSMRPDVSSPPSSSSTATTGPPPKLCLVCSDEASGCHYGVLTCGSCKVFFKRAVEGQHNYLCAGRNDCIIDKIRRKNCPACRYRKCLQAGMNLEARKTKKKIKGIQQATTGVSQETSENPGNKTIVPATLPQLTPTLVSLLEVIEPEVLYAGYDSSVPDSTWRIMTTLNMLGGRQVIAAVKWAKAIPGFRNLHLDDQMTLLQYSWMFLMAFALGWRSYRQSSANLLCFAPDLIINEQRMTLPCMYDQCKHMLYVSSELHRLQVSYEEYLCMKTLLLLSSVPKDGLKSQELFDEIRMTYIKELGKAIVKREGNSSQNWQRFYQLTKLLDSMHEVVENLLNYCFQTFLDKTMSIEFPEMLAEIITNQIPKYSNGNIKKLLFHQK

[5] = biological target: T4, Estrogen receptor (Homo sapiens) (UniProt Q92731+P03372); assay: Antagonist efficacy for Estrogen receptor; Not active; type: functional
[6] = biological target: T5, Mineralocorticoid receptor (Homo sapiens, UniProt P08235); assay: Inhibition of antagonist activity towards mineralocorticoid receptor (hMR); Not active; type: functional
T5 sequence (P08235 whole entry): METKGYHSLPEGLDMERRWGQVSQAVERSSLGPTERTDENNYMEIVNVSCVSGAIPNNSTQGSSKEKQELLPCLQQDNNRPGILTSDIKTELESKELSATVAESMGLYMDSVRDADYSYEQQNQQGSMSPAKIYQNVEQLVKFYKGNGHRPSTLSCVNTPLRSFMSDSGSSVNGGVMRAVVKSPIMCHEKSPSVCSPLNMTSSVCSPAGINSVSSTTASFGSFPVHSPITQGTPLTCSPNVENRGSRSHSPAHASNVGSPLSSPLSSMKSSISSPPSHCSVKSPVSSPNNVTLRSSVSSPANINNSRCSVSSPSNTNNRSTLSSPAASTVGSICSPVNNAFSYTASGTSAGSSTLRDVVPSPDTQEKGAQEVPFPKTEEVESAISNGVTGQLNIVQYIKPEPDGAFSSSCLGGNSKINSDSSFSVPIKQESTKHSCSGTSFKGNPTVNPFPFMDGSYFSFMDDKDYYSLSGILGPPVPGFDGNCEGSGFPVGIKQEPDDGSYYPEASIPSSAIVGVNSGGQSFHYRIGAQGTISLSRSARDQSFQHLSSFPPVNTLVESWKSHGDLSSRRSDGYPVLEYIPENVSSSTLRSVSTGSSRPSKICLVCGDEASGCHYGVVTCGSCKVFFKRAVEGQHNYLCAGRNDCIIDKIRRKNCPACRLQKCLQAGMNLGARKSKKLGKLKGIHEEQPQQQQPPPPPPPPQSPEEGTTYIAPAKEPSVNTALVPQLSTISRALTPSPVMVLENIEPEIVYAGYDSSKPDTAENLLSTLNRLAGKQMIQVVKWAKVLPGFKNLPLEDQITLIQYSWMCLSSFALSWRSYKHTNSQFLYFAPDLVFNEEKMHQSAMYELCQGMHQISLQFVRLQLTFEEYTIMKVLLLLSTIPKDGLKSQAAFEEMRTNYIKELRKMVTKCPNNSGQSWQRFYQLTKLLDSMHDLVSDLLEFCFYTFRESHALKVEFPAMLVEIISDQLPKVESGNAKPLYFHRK

[7] = biological target: T6, Mineralocorticoid receptor (Homo sapiens) (UniProt P08235); assay: Antagonist efficacy for mineralocorticoid receptor (hMR); Not active; type: functional
T6 sequence (whole entry): T5 sequence (P08235 whole entry)

[8] = biological target: T7, Androgen receptor (Homo sapiens, UniProt P10275)
T7 sequence (P10275 whole entry): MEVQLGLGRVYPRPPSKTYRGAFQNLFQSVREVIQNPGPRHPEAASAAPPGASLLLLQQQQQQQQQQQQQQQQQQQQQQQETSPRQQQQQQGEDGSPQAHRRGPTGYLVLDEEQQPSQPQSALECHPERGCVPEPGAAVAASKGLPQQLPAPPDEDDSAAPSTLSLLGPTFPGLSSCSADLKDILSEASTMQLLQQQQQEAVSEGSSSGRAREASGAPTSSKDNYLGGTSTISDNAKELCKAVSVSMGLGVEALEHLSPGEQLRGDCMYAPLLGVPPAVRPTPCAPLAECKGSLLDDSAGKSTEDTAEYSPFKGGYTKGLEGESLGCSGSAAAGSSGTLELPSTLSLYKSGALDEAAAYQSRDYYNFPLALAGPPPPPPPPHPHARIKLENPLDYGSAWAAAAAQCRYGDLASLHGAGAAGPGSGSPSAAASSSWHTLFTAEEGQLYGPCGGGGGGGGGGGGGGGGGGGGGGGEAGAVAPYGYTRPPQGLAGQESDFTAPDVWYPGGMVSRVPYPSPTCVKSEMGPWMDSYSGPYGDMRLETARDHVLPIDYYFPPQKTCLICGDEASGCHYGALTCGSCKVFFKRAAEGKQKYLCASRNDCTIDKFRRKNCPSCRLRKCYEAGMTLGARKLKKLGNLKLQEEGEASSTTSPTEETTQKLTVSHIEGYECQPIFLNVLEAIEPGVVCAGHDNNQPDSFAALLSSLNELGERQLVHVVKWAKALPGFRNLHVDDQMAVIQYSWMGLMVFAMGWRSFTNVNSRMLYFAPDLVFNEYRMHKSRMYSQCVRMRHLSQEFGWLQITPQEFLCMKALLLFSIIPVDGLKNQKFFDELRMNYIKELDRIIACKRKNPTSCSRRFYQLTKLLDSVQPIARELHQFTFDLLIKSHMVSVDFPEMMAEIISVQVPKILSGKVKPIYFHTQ
Description: Inhibition of antagonist activity towards Androgen receptor

[9] = biological target: T1, Progesterone receptor
Description: Antagonistic activity at human progesterone receptor in CV-1 cells.

[10] = biological target: T1, Progesterone receptor; remark: listed apart in the source
Description: Effective concentration for human progesterone receptor in T47D human breast cancer cell

[11] = biological target: T1, Progesterone receptor; remark: listed apart in the source
Description: Binding affinity at human progesterone receptor.

[12] = biological target: T1, Progesterone receptor; remark: listed apart in the source
Description: Inhibition of human progesterone receptor activation in T47D human breast cancer cell.

[13] = biological target: T3, Glucocorticoid receptor; assay: Inhibition of antagonist activity towards glucocorticoid receptor; not active; type: functional
[14] = biological target: T8, Glucocorticoid receptor (Homo sapiens) (UniProt P04150); assay: Antagonist efficacy for glucocorticoid receptor; not active; type: functional
T8 sequence (whole entry): T3 sequence (P04150 whole entry)

[15] = biological target: T5, Mineralocorticoid receptor; assay: Inhibition of antagonist activity towards mineralocorticoid receptor (hMR); type: functional
[16] = biological target: T6, Mineralocorticoid receptor (Homo sapiens); assay: Antagonist efficacy for mineralocorticoid receptor (hMR); type: functional
[17] = biological target: T4, Estrogen receptor (Homo sapiens); assay: Antagonist efficacy for Estrogen receptor; type: functional
[18] = biological target: T2, Progesterone receptor (Homo sapiens); assay: Effective concentration against human progesterone receptor in T47D human breast cancer cell; not active (<20% efficacy and/or >10 mM potency); type: cell-based; details: Cancer cell lines
[19] = biological target: T2, Progesterone receptor (Homo sapiens); assay: Agonist efficacy for human progesterone receptor in T47D human breast cancer cell; not active (<20% efficacy and/or >10 mM potency); type: functional, cell-based

Row | Compound | Efficacy [5] | IC50 [6] | Efficacy [7] | IC50 [8] [nM] | EC50 [9] [nM] | Ki [11] [nM] | IC50 [12] [nM] | also measured
1 | CC1=CC(C)(C)Nc2ccc3c(c21)COc1c(Br)cc(Br)cc1-3 |  |  |  |  |  |  |  | EC50 [1]: 1870 nM; Efficacy [2]: 86%; Ki [3]: > 1000 nM
2 | CC#C[C@]1(O)CC[C@H]2[C@@H]3CCC4=CC(=O)CCC4=C3[C@@H](c3ccc(N(C)C)cc3)C[C@@]21C |  |  |  |  |  |  |  | Efficacy [17]: 59%
3 | COc1cc(Br)cc2c1OCc1c-2ccc2c1C(C)=CC(C)(C)N2 |  |  |  |  | 43 | 476 |  | 
4 | Cc1cc(F)cc2c1OCc1c-2ccc2c1C(C)CC(C)(C)N2 (stereo unspecified) |  |  |  |  | 637 | 391 | 499 | Activity [18]: inactive; Activity [19]: inactive

More lines, main results first:

Row | Efficacy [5] | IC50 [6] | Efficacy [7] | IC50 [8] [nM] | EC50 [9] [nM] | Ki [11] [nM] | IC50 [12] [nM] | Compound | also measured
5 | inactive | Not Active | inactive | 60 | 16.7 | 4.5 | 149 | CC1=CC(C)(C)Nc2ccc3c(c21)COc1c(F)cc(C#N)cc1-3 | IC50 [4]: 194 nM; EC50 [10]: 86 nM
6 | inactive |  |  | 1250 |  |  |  | CC1=CC(C)(C)Nc2ccc3c(c21)COc1ccc(F)cc1-3 | IC50 [13]: Not Active; Efficacy [14]: inactive; IC50 [15]: 3160 nM; Efficacy [16]: 30%
7 | inactive | Not Active | inactive | 788 |  |  |  | CC1=CC(C)(C)Nc2ccc3c(c21)COc1ccc(Cl)cc1-3 | IC50 [13]: Not Active; Efficacy [14]: inactive
8 | inactive | Not Active | inactive | 395 | 45 | 15 | 485 | CC1=CC(C)(C)Nc2ccc3c(c21)COc1ccc(Br)cc1-3 | IC50 [4]: 1930 nM; EC50 [10]: 552 nM
